Where “and” joins values, the source holds several entries; their conditions need not be identical. Equal values may be shown once. Inconclusive results and toxic doses are left out. Rule as the data show it: active = T/C of 150% or more; inactive = T/C below 125%. Peptide text beside a SMILES is read from it. * marks the point of attachment. Cbz = O=C(OCc1ccccc1)*
Tested on: L1210 leukemia ip in BDF1 mice, survival T/C
Experiment: NCI In Vivo Anticancer Drug Screen. Data for tumor model L1210 Leukemia (intraperitoneal) in B6D2F1 (BDF1) mice
Settings: endpoint: mean survival time, higher = longer survival
Summary of the method: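 Transplantable tumor model; survival measured in treated vs vehicle control mice. Value = treated/control.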

[1] = dose: 100.0 mg/kg/injection, schedule: Q04DX002 (ip), vehicle: Klucel (hydroxypropylcellulose) (HPC)
[2] = dose: 200.0 mg/kg/injection, schedule: Q04DX002 (ip), vehicle: Klucel (hydroxypropylcellulose) (HPC)
[3] = dose: 100.0 mg/kg/injection, schedule: Q01DX001 (ip), vehicle: saline
[4] = dose: 200.0 mg/kg/injection, schedule: Q01DX001 (ip), vehicle: saline
[5] = dose: 400.0 mg/kg/injection, schedule: Q01DX001 (ip), vehicle: saline
[6] = dose: 100.0 mg/kg/injection, schedule: Q04DX003 (ip), vehicle: saline

Measured: T/C

NNC(=O)CCNCCC(=O)NN
inactive: dose: 100.0 mg/kg/injection, schedule: Q04DX002 (ip), vehicle: saline + alcohol 94 % of control | dose: 200.0 mg/kg/injection, schedule: Q04DX002 (ip), vehicle: saline + alcohol 88 % of control

O=C(Nc1ccccc1C(=O)OCc1ccc([N+](=O)[O-])cc1)OCc1ccccc1
inactive: dose: 75.0 mg/kg/injection, schedule: Q04DX003 (ip), vehicle: saline 98 % of control | dose: 150.0 mg/kg/injection, schedule: Q04DX003 (ip), vehicle: saline 98 % of control | dose: 300.0 mg/kg/injection, schedule: Q04DX003 (ip), vehicle: saline 104 % of control

S=C(NCc1ccccc1)NCc1ccccc1
inactive: [1] 94 % of control and 87 % of control | [2] 87 % of control | dose: 400.0 mg/kg/injection, schedule: Q04DX002 (ip), vehicle: Klucel (hydroxypropylcellulose) (HPC) 90 % of control

CN(C)CCCN1c2cc(Cl)ccc2Sc2ccc(Cl)cc21
inactive: [1] 122 % of control | [2] 108 % of control

CC(=O)OCc1ccc(/C=N/N2C(=O)CSC2=S)o1
inactive: dose: 75.0 mg/kg/injection, schedule: Q01DX001 (ip), vehicle: carboxymethylcellulose (CMC) 105 % of control | dose: 150.0 mg/kg/injection, schedule: Q01DX001 (ip), vehicle: carboxymethylcellulose (CMC) 100 % of control | dose: 300.0 mg/kg/injection, schedule: Q01DX001 (ip), vehicle: carboxymethylcellulose (CMC) 97 % of control

C[CH2][Ge]([CH2]C)[O][Ge]([CH2]C)[CH2]C.C[CH2][Ge]([CH2]C)[O][Ge]([CH2]C)[CH2]C
inactive: dose: 5.0 mg/kg/injection, schedule: Q04DX002 (ip), vehicle: saline with Tween-80 96 % of control | dose: 10.0 mg/kg/injection, schedule: Q04DX002 (ip), vehicle: saline with Tween-80 96 % of control | dose: 20.0 mg/kg/injection, schedule: Q04DX002 (ip), vehicle: saline with Tween-80 100 % of control

CSCCC(NC(=O)C(CO)NC(=O)OCc1ccccc1)C(=O)O (stereo not drawn) (Cbz-Ser-Met-OH; configuration not given here)
inactive: dose: 100.0 mg/kg/injection, schedule: Q04DX003 (ip), vehicle: Klucel (hydroxypropylcellulose) (HPC) 96 % of control | dose: 200.0 mg/kg/injection, schedule: Q04DX003 (ip), vehicle: Klucel (hydroxypropylcellulose) (HPC) 97 % of control | dose: 400.0 mg/kg/injection, schedule: Q04DX003 (ip), vehicle: Klucel (hydroxypropylcellulose) (HPC) 96 % of control

Cc1ccc(S(=O)(=O)N2C=Cc3ccccc3CC2)cc1
inactive: dose: 100.0 mg/kg/injection, schedule: Q01DX001 (ip), vehicle: carboxymethylcellulose (CMC) 107 % of control | dose: 200.0 mg/kg/injection, schedule: Q01DX001 (ip), vehicle: carboxymethylcellulose (CMC) 100 % of control | dose: 400.0 mg/kg/injection, schedule: Q01DX001 (ip), vehicle: carboxymethylcellulose (CMC) 112 % of control

CC(=O)Nc1ccc(/C=N/N2CCN(/N=C/c3ccc(NC(C)=O)cc3)CC2)cc1
inactive: [3] 86 % of control | [4] 96 % of control | [5] 92 % of control

O=c1ccn(Cc2ccccc2)cn1
inactive: [6] 106 % of control | dose: 200.0 mg/kg/injection, schedule: Q04DX003 (ip), vehicle: saline 104 % of control | dose: 400.0 mg/kg/injection, schedule: Q04DX003 (ip), vehicle: saline 98 % of control

COc1c2occc2c(OC)c2c(=O)cc(/C=C/c3ccncc3)oc12
inactive: [3] 97 % of control | [4] 94 % of control | [5] 101 % of control

CCN1/C(=C/C=C/c2oc3ccccc3[n+]2CC)Oc2ccccc21
inactive: dose: 0.05 mg/kg/injection, schedule: Q04DX003 (ip), vehicle: Klucel (hydroxypropylcellulose) (HPC) 102 % of control | dose: 0.1 mg/kg/injection, schedule: Q04DX003 (ip), vehicle: Klucel (hydroxypropylcellulose) (HPC) 100 % of control | dose: 0.2 mg/kg/injection, schedule: Q01DX009 (ip), vehicle: saline 104 % of control | dose: 0.2 mg/kg/injection, schedule: Q04DX003 (ip), vehicle: Klucel (hydroxypropylcellulose) (HPC) 98 % of control | dose: 0.2 mg/kg/injection, schedule: Q04DX003 (ip), vehicle: saline 112 % of control | dose: 0.4 mg/kg/injection, schedule: Q01DX009 (ip), vehicle: saline 109 % of control | dose: 0.4 mg/kg/injection, schedule: Q04DX003 (ip), vehicle: Klucel (hydroxypropylcellulose) (HPC) 104 % of control | dose: 0.4 mg/kg/injection, schedule: Q04DX003 (ip), vehicle: saline 94 % of control | dose: 0.5 mg/kg/injection, schedule: Q01DX001 (ip), vehicle: saline 108 % of control | dose: 0.8 mg/kg/injection, schedule: Q01DX009 (ip), vehicle: saline 114 % of control | dose: 0.8 mg/kg/injection, schedule: Q04DX003 (ip), vehicle: saline 100 % of control | dose: 1.0 mg/kg/injection, schedule: Q01DX001 (ip), vehicle: saline 100 % of control | dose: 1.6 mg/kg/injection, schedule: Q04DX003 (ip), vehicle: saline 107 % of control | dose: 37.5 micrograms/kg/injection, schedule: Q01DX009 (ip), vehicle: Klucel (hydroxypropylcellulose) (HPC) 108 % of control | dose: 75.0 micrograms/kg/injection, schedule: Q01DX009 (ip), vehicle: Klucel (hydroxypropylcellulose) (HPC) 98 % of control | dose: 150.0 micrograms/kg/injection, schedule: Q01DX009 (ip), vehicle: Klucel (hydroxypropylcellulose) (HPC) 107 % of control | dose: 300.0 micrograms/kg/injection, schedule: Q01DX009 (ip), vehicle: Klucel (hydroxypropylcellulose) (HPC) 113 % of control

Nc1nc(Nc2ccc(C3=NCCN3)cc2)nc(Nc2ccc(C3=NCCN3)cc2)n1
inactive: dose: 1.2 mg/kg/injection, schedule: Q01DX Z (ip), vehicle: methylcellulose (MC) 112 % of control | dose: 1.9 mg/kg/injection, schedule: Q01DX Z (ip), vehicle: methylcellulose (MC) 123 % of control | dose: 3.75 mg/kg/injection, schedule: Q01DX Z (ip), vehicle: methylcellulose (MC) 117 % of control | dose: 15.0 mg/kg/injection, schedule: Q01DX Z (ip), vehicle: methylcellulose (MC) 120 % of control | dose: 16.5 mg/kg/injection, schedule: Q01DX009 (ip), vehicle: saline 108 % of control | dose: 25.0 mg/kg/injection, schedule: Q01DX009 (ip), vehicle: saline 120 % of control and 122 % of control | dose: 25.0 mg/kg/injection, schedule: Q04DX003 (ip), vehicle: saline 112 % of control | dose: 37.5 mg/kg/injection, schedule: Q01DX009 (ip), vehicle: saline 114 % of control and 115 % of control | dose: 50.0 mg/kg/injection, schedule: Q01DX009 (ip), vehicle: saline 123 % of control | dose: 50.0 mg/kg/injection, schedule: Q04DX003 (ip), vehicle: saline 109 % of control | dose: 60.0 mg/kg/injection, schedule: Q01DX Z (oral), vehicle: carboxymethylcellulose (CMC) 100 % of control | [3] 117 % of control | [6] 91 % of control | dose: 120.0 mg/kg/injection, schedule: Q01DX Z (oral), vehicle: carboxymethylcellulose (CMC) 95 % of control

CCCCc1ccc(O)c(O)c1O
inactive: dose: 50.0 mg/kg/injection, schedule: Q01DX001 (sc), vehicle: olive oil, sesame oil, peanut oil 117 % of control | dose: 100.0 mg/kg/injection, schedule: Q01DX001 (sc), vehicle: olive oil, sesame oil, peanut oil 101 % of control and 106 % of control | dose: 200.0 mg/kg/injection, schedule: Q01DX001 (sc), vehicle: olive oil, sesame oil, peanut oil 101 % of control and 105 % of control | dose: 400.0 mg/kg/injection, schedule: Q01DX001 (sc), vehicle: olive oil, sesame oil, peanut oil 108 % of control

CSc1nnnn1-c1ccccc1
inactive: dose: 100.0 mg/kg/injection, schedule: Q04DX003 (ip), vehicle: acetone 100 % of control | dose: 100.0 mg/kg/injection, schedule: Q04DX003 (ip), vehicle: saline with Tween-80 102 % of control | dose: 200.0 mg/kg/injection, schedule: Q04DX003 (ip), vehicle: saline with Tween-80 100 % of control | dose: 400.0 mg/kg/injection, schedule: Q04DX003 (ip), vehicle: acetone 100 % of control
